Reference: US20070112032A1, “Prevention and/or reduction of photoreceptor degeneration with retinoids” (priority 2003, published 2007)

Legend:
[1] = system: photoreceptors of rats and mice; details: Sparrow PNAS 2003, Sieving PNAS 2001; cited from earlier work
[2] = system: photoreceptor layer of rats exposed to blue light; experiment: Blue light (480 nm) photoreceptor damage in rats, retinal structure by histology; type: in vivo, Sprague-Dawley rats; parameters: key to Protective Activity: * means a protective effect of the photoreceptor layer to damage from blue light radiation.; **: Greater effectiveness is shown by increasing number of *'s.; ***: Greater effectiveness is shown by increasing number of *'s.; X means no such protective effect; details: for Protective Activity / thickness of the photoreceptor layer: rats; for Protective Activity: oral dosing 5 days, last dose 2 hours before 8 hours blue light (480 nm, 12000 LUX); for thickness of the photoreceptor layer: FIG. 2, oral 5 days before blue light, tazarotene 3 mg/kg/day, Compound A 10 mg/kg/day, compared with vehicle and antagonists
Experimental: (§1) Adult male abino Sprague-Dawley rats (weight 400±30 g) were used for the following examples. After 18 hours of dark adaptation, animals were housed in specially designed acrylic cages and exposed to high intensity (12000 LUX) of blue fluorescent light (480 nm) for 8 hours. The light intensity was measured with a digital light meter. Each animal was housed separately. The room was maintained at 73° F. throughout the experiment. Animals were orally dosed with the appropriate retinoid or positive control, i.e. brimonidine, for 5 days with the last dose administered 2 hours before blue-light exposure. After the light exposure, the animals were kept in the dark room and recovered for an additional 5 days. Retinal function was evaluated with flash ERG analysis. Retinal structure was assessed by histology.
The following retinoids were evaluated for preventing damage to the photoreceptor layer of rats subjected to exposure to blue light.
(The RAR agonist, tazarotene, is an RARβ and […] retinioid. The RXR agonist also has some RAR agonist activity.)
In this Example, the above experiment is repeated with the RAR antagonist, which has antagonist activity at the α, β and […] retinoid receptor subtype dosed in combination with the RAR agonist and the RXR agonist.
The following retinoid compounds were tested in the above method with the results reported as shown.

[3] = system: photoreceptor layer of rats exposed to blue light; experiment: Blue light (480 nm) photoreceptor damage in rats, retinal function by flash ERG; type: in vivo, Sprague-Dawley rats; details: FIG. 3, ERG wave versus time, oral 5 days before blue light
Experimental: as §1

## CC1=C(/C=C/C(C)=C/C=C/C(C)=C\C(=O)O)C(C)(C)CCC1 [isotretinoin, 13-cis retinoic acid]
[1]
  protection of photoreceptors from light damage: can protect photoreceptors of rats and mice from light damage

## CC1(C)CCC(C)(C)c2c1cc(C(=O)Nc1cc(F)c(C(=O)O)c(F)c1)c(O)c2Cl [Compound E, 4-[(4-Chloro-3-hydroxy-5,5,8,8-tetramethyl-5,6,7,8-tetrahydro-naphthalene-2-carbonyl)-amino]-2,6-difluoro-benzoic acid]
[2]
  Protective Activity: **

## CCc1ccc(C2=CC(C)(C)Sc3ccc(C#Cc4ccc(C(=O)O)cc4)cc32)cc1 [Compound C]
[2]; FIG. 5, RAR antagonist dosed in combination with the RAR agonist and the RXR agonist
  effect of RAR antagonist on effectiveness of RAR agonist and RXR agonist: severely diminishes the effectiveness of both the RAR agonist and the RXR agonists
[2]
  Protective Activity: X

## Brc1c(NC2=NCCN2)ccc2nccnc12 [brimonidine, reference compound]
[2]
  thickness of the photoreceptor layer: much greater than the thickness of the photoreceptor layers of the animals dosed with the vehicle alone

## CCCOc1c(\C(CC)=C(F)/C=C/C(C)=C/C(=O)O)cc(C(C)C)cc1C(C)C [Compound B, (2E,4E,6E)-7-(3,5-Diisopropyl-2-propoxy-phenyl)-6-fluoro-3-methyl-nona-2,4,6-trienoic acid]
[2]
  Protective Activity: X

## CC(/C=C/[C@@H]1C[C@]1(C)c1ccc2c(c1)C(C)(C)CCC2(C)C)=C\C(=O)O [Compound A, 3,7-Dimethyl-6(S),7(S)-methano-7-[1,1,4,4-tetramethyl-1,2,3,4-tetrahydronaphth-7-yl]-2E, 4E-heptadienoic acid]
[2]
  thickness of the photoreceptor layer: greater than the photoreceptor layers of the animals dosed with the RAR or RXR antagonists
  Protective Activity: **
[3]
  protective effect to the photoreceptor layer measured by ERG: show a protective effect

## Cc1ccc(C2CC(C)(C)Oc3c(Br)cc(NC(=O)c4ccc(C(=O)O)c(F)c4)cc32)cc1 (centres unmarked) [Compound D, 2-Fluoro-4-[6′-(2″,2″-dimethyl-4″-tolylchromanyl)-8'-bromo]carbamoyl benzoic acid]
[2]
  Protective Activity: X

## CCC[C@]1(c2ccc3c(c2)C(C)(C)CCC3(C)C)C[C@H]1/C=C/C(C)=C/C(=O)O [Compound F, 3-Methyl-7-propyl-6(S),7(S)-methano-7[1,1,4,4-tetrametyl-1,2,3,4-tetrahydro-7-yl]-2(E),4(E)-heptadienoic acid]
[2]
  Protective Activity: X
